Results published in ChEMBL document CHEMBL1201862, “PubChem BioAssay data set” (2004).
Calls of active or inactive are those of the source.

Key:
Bcl-2-related protein A1 [1] = molecular target: T1, Bcl-2-related protein A1 (Mus musculus, UniProt Q07440); test: Bfl-1 inhibitors blocking BH3 peptide binding, confirmation, biochemical, TR-FRET, mouse Bfl-1 (AID 621);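 note: TR-FRET binding of GST-Bfl-1 to FITC-labelled Bid peptide via terbium antibody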
T1 sequence (Q07440 whole entry): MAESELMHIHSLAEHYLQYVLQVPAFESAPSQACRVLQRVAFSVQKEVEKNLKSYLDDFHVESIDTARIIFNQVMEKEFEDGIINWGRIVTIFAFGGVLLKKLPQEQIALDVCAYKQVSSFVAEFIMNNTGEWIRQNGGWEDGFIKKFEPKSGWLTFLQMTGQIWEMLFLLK

Bcl-2-related protein A1 [2] = molecular target: T1, Bcl-2-related protein A1; test: Bfl-1 binding inhibitors, SAR follow-up, biochemical, fluorescence polarization (AID 1070)
[3] = molecular target: T2, Aryl hydrocarbon receptor (Homo sapiens, UniProt P35869); test: Luminescence-based cell-based high throughput dose response assay for activators of the Aryl Hydrocarbon Receptor (AHR). [Related pubchem assays: 2796 (Primary screen (AHR activators in singlicate)), 2845 (Confirmation screen (AHR activators in triplicate)), 434939 (Counterscreen (PXR activators in triplicate)), 2804 (Summary (AHR activators))]; format: ADME
T2 sequence (P35869 whole entry): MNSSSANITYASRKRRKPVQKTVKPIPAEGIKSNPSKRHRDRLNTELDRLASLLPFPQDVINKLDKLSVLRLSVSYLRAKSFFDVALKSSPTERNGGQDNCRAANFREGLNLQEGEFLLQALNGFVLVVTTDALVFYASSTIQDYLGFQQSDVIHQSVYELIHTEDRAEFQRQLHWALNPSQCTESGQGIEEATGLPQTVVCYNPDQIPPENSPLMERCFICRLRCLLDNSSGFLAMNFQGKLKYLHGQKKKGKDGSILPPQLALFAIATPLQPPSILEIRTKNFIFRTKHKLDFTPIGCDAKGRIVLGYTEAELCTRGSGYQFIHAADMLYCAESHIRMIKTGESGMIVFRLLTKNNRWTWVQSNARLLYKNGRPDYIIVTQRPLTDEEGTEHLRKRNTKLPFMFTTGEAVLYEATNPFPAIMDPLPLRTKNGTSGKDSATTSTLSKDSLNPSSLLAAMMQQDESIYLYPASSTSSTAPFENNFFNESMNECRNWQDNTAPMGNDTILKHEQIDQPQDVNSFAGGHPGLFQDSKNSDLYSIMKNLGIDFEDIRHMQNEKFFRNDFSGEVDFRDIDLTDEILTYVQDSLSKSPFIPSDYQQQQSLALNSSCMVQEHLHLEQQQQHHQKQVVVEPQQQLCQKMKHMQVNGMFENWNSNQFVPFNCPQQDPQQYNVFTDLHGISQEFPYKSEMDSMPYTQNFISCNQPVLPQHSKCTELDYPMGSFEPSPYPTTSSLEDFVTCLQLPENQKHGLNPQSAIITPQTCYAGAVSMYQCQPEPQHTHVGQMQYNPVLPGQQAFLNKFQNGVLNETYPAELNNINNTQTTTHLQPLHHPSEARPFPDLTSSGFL

Large T antigen = Large T antigen (Simian virus 40, UniProt P03070); format: functional, Betapolyomavirus macacae;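 note: Confirmatory-stage PubChem screen for compounds that inhibit SV40 T antigen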
Ephrin type-A receptor 4 = Ephrin type-A receptor 4 (Mus musculus, UniProt Q03137); test: inhibitors of EphA4 binding to KYL peptide, primary screen, biochemical, colorimetric, mouse EphA4 (AID 689); format: functional
[4] = molecular target: Glucose-6-phosphate 1-dehydrogenase (Homo sapiens, UniProt P11413); test: human G6PD enzyme inhibitors, dose response, selectivity assay for P. falciparum G6PD inhibitor project, biochemical, fluorescence (AID 504792); format: functional
[5] = system: Streptococcus sp. 'group A'; test: growth inhibition of control SK(-) GAS strain, dose response, counter-screen for streptokinase expression inhibitor project, luminescence, kanamycin, BacTiterGlo, confirmation (AID 1900); format: functional, organism-based
cells [6] = format: functional, cell-based
[7] = inhibitors of intracellular T. cruzi replication, confirmation, NIH3T3 host cells, beta-gal luminescence (AID 2044); format: functional, cell-based;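 note: intracellular parasites grown in NIH/3T3 mouse fibroblasts as host cells; luminescent beta-galactosidase reporter signal from transgenic T. cruzi replicating inside host cells; inhibitors lower the luminescence signal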
cells [8] = format: functional, cell-based; remark: listed apart in the source
[9] = molecular target: Voltage-gated inwardly rectifying potassium channel KCNH2 (Homo sapiens, UniProt Q12809); test: hERG protection from proarrhythmic block, potency, dose response, cell-based, thallium flux (AID 2121); format: ADME
[10] = cytotoxicity toward NIH3T3 fibroblasts, dose response, counter-screen, cell-based, ATP luminescence, mouse fibroblasts (AID 2010); format: functional;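 note: cells exposed to compound for about 90 hours before reading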
Streptococcus = test: Group A Streptococcus viability loss, dose response, counter-screen for streptokinase expression inhibitor project, luminescence, BacTiterGlo (AID 1915); format: functional, organism-based;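 note: potency for reduction of bacterial viability or growth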
INS1 = test: beta cell apoptosis inhibitors, cytokine rescue, dose response, luminescence, retest (AID 449756); format: functional, cell-based; details: Rattus norvegicus;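 note: cell death triggered by IL-1 beta plus TNF-alpha plus IFN-gamma mixture; protective hits raise ATP signal compared with cytokine alone wells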
Bcl-2-related protein A1 [11] = molecular target: T1, Bcl-2-related protein A1; test: Bfl-1 inhibitors, primary screen, biochemical, fluorescence polarization, FITC-Bid, mouse (AID 432)
Galanin receptor type 2 = Galanin receptor type 2 (Homo sapiens, UniProt O43603); test: Dose Response cell-based high-throughput screening assay to identify antagonists of galanin receptor 2 (GALR2). [Related pubchem assays: 828, 866 ]; format: functional
Genome polyprotein = Genome polyprotein (Hepatitis C virus, UniProt Q2Q167); test: HCV core protein dimerization inhibitors, dose response, biochemical, TR-FRET (AID 2159); design: species or system Hepacivirus hominis;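 note: blocks dimerization of HCV core protein measured by TR-FRET between tagged core106 pairs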
Estrogen receptor = molecular target: T3, Estrogen receptor (Homo sapiens, UniProt P03372);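 note: potency for inhibiting coactivator peptide recruitment to the receptor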
T3 sequence (P03372 whole entry): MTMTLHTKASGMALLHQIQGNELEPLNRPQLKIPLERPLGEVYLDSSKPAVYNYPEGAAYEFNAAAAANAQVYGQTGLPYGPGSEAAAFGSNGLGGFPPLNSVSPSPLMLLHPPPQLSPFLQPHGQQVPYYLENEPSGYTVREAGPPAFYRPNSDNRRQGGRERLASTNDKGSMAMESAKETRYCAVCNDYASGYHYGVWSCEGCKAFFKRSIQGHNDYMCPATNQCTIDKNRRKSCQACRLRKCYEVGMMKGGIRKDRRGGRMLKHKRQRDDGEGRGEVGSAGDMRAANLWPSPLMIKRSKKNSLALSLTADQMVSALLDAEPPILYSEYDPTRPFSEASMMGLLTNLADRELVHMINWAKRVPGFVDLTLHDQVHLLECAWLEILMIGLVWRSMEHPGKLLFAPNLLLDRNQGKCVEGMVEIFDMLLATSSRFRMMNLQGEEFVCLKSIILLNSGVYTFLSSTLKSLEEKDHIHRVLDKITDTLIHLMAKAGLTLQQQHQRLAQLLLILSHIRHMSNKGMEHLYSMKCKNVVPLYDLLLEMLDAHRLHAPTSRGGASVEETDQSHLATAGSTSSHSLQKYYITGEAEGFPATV

[12] = molecular target: Induced myeloid leukemia cell differentiation protein Mcl-1 (Homo sapiens, UniProt Q07820); format: functional
[13] = molecular target: Peroxisome proliferator-activated receptor gamma/Nuclear receptor corepressor 2 (Homo sapiens, UniProt P37231+Q9Y618); test: Counterscreen for NR2E3 inverse agonists: TR-FRET-based biochemical high throughput dose response assay to identify inverse agonists of the interaction between peroxisome proliferator-activated receptor gamma (PPARg) and nuclear receptor co-repressor 2 (NCOR2).; format: functional
[14] = molecular target: Photoreceptor-specific nuclear receptor (Homo sapiens, UniProt Q9Y5X4); test: NR2E3 inverse agonists, dose response, biochemical, TR-FRET (AID 463256); format: functional
[15] = M. tuberculosis growth inhibition, HTS (AID 449762); format: functional
[16] = molecular target: FAD-linked sulfhydryl oxidase ALR (Homo sapiens, UniProt P55789); test: inhibitors of human ALR sulfhydryl oxidase, dose response, biochemical, H2O2 detection, luminescence, cherry-pick (AID 493248)
Paired box protein Pax-8 = Paired box protein Pax-8 (Homo sapiens, UniProt Q06710); test: inhibitors of PAX8-driven TPO luciferase reporter, dose response, RMG-I cells, cherry-pick (AID 687027); format: functional, cell-based;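 note: luciferase reporter driven by Pax8 target thyroperoxidase promoter measured by SteadyGlo luminescence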
[17] = cytotoxicity in OVCAR8 ovarian cancer cells, dose response, PAX8 project, cell-based, plate reader, dry powder samples (AID 743197); format: functional; details: OVCAR-8
[18] = A549 cell cytotoxicity, dose response, CellTiter-Glo luminescence, dry powder, set 17 (AID 1117284); format: functional, cell-based
Cytochrome P450 2C19 = Cytochrome P450 2C19 (Homo sapiens, UniProt P33261); test: qHTS Assay for Inhibitors and Substrates of Cytochrome P450 2C19. [Related pubchem assays: 410 ]; format: ADME; details: read-out: Potency
[19] = molecular target: Luciferin 4-monooxygenase (Photinus pyralis, UniProt P08659); test: firefly luciferase enzyme inhibitors, dose response, biochemical, luminescence (AID 1891)
[20] = Luminescence Cell-Based Dose Confirmation HTS to Identify Inhibitors of Platelet Dense Granule Release. [Related pubchem assays: 1663 (Primary HTS), 1678 (Summary of Project)]; format: functional
[21] = Fluorescence Cell-Based Dose Response to Identify Inhibitors of Thrombin Receptor-Activating Peptide SFLLRN-Mediated P-Selectin Induction on Platelets. [Related pubchem assays: 1663 (Primary HTS), 1889 (retest at dose ), 1891 (counterscreen), 1678 (Project Summary)]; format: functional
[22] = HepG2 cell cytotoxicity, dose response, cytotoxicity control, plate reader, dry powder, set 6 (AID 743311); format: functional, cell-based
[23] = HeLa 2N DNA content increase, dose response, cell-based, IC50 (AID 1117349); format: functional
[24] = Concentration-dependent survival of SW480 colon cancer line, luminescence detection with CellTiter-Glo, half-maximal inhibitory concentration (AID 1117338); format: functional
[25] = RKO cell viability reduction, dose response, CellTiter-Glo luminescence (AID 1117322); format: functional
[26] = cytotoxicity toward HCT116 cells – cell-based, CellTiter-Glo luminescence, IC50, dose response (AID 1117332); format: functional; details: HCT-116
[27] = SNU-C1 cell viability reduction, dose response, CellTiter-Glo luminescence (AID 1117323); format: functional, cell-based
[28] = cytotoxicity toward Colo320 cells – cell-based, CellTiter-Glo luminescence, IC50, dose response (AID 1117334); format: functional; details: COLO 320
[29] = HeLa 4N DNA content increase, dose response, cell-based, IC50 (AID 1117351); format: functional
[30] = cytotoxicity toward HT-29 cells – cell-based, CellTiter-Glo luminescence, IC50, dose response (AID 1117330); format: functional
[31] = CellTiter-Glo luminescent dose response of DLD-1 viability loss (AID 1117352); format: functional
[32] = HCT116 cell viability decrease, GSK3B pretreatment – CellTiter-Glo, IC50, dose response (AID 1117339); format: functional; details: HCT-116
[33] = Dose-response inhibition of insulin secretion in a rat insulinoma line at 5 mM glucose (AID 1117331); format: functional, cell-based; details: INS-1E

Chain of Genome polyprotein (Q2Q167 whole entry): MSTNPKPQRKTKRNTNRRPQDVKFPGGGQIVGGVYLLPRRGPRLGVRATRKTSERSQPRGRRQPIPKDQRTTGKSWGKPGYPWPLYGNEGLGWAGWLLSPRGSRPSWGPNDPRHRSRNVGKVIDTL
Chain of Cytochrome P450 2C19 (P33261 whole entry): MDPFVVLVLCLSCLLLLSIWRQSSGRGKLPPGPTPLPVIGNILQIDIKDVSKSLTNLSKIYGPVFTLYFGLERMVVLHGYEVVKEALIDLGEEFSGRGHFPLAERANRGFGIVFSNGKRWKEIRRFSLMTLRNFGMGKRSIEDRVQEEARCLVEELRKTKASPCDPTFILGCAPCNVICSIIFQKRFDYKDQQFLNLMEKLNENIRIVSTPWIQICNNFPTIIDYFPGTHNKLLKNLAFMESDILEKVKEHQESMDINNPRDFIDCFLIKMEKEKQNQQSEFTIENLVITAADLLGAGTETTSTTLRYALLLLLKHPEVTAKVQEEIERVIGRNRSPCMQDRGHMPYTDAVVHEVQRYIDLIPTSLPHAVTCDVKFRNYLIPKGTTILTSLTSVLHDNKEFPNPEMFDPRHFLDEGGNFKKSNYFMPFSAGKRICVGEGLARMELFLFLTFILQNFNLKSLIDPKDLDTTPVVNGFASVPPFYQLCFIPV
Chain of Paired box protein Pax-8 (Q06710 whole entry): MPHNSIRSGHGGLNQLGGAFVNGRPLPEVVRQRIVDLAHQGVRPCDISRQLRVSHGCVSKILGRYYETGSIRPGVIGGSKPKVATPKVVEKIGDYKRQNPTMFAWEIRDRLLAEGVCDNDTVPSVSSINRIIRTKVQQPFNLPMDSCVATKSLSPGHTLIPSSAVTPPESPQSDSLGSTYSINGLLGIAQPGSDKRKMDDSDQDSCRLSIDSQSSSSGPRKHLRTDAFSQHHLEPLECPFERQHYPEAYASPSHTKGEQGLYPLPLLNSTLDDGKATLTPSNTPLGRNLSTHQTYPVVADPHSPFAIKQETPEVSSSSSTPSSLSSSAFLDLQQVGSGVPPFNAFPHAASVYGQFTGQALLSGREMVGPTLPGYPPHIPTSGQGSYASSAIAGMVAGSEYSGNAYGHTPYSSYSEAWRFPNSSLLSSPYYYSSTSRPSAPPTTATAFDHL
Chain of Large T antigen (P03070 whole entry): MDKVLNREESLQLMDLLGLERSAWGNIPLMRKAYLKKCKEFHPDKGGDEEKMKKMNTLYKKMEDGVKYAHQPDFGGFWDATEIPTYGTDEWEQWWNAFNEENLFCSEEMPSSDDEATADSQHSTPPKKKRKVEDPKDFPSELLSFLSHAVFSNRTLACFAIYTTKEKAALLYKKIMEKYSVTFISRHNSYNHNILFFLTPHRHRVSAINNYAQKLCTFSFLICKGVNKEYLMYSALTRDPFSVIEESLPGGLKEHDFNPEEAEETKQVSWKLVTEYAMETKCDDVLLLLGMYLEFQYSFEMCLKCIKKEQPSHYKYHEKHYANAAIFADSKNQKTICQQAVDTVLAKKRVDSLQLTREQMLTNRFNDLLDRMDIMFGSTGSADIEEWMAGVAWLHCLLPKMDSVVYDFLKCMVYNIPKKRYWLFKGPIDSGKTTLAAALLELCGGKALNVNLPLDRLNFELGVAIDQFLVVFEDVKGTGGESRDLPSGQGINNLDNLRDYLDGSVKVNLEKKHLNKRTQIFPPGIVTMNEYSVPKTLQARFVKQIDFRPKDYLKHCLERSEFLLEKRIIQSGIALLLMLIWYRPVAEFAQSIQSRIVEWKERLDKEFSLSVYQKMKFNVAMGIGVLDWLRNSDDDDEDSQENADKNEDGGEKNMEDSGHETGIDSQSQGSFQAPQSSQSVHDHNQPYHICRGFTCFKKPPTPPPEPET
Chain of Luciferin 4-monooxygenase (P08659 whole entry): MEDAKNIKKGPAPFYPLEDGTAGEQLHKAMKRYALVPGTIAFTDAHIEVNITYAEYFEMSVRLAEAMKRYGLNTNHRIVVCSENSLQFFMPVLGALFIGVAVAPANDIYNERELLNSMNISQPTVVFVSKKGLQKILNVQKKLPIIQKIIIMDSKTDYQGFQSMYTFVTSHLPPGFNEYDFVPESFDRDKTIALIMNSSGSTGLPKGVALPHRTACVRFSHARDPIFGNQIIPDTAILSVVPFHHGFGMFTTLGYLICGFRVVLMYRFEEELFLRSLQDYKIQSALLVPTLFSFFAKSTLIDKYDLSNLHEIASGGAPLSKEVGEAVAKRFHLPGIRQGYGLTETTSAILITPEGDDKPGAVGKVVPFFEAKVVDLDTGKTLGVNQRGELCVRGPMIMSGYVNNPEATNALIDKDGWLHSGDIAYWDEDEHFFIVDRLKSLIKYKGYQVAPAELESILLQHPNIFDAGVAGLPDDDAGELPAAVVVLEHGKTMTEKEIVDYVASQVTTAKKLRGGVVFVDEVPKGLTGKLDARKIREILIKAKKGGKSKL
Chain of Galanin receptor type 2 (O43603 whole entry): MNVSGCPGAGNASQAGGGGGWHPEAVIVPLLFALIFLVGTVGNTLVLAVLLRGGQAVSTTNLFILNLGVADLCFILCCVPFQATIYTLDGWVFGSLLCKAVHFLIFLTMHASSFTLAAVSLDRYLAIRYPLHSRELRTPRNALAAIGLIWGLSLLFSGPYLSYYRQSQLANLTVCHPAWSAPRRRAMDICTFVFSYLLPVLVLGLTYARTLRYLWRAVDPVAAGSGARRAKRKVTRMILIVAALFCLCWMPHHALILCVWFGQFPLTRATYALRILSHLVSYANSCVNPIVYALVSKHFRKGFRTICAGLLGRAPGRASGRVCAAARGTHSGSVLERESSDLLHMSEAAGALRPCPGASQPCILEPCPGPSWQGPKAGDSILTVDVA
Chain of Ephrin type-A receptor 4 (Q03137 whole entry): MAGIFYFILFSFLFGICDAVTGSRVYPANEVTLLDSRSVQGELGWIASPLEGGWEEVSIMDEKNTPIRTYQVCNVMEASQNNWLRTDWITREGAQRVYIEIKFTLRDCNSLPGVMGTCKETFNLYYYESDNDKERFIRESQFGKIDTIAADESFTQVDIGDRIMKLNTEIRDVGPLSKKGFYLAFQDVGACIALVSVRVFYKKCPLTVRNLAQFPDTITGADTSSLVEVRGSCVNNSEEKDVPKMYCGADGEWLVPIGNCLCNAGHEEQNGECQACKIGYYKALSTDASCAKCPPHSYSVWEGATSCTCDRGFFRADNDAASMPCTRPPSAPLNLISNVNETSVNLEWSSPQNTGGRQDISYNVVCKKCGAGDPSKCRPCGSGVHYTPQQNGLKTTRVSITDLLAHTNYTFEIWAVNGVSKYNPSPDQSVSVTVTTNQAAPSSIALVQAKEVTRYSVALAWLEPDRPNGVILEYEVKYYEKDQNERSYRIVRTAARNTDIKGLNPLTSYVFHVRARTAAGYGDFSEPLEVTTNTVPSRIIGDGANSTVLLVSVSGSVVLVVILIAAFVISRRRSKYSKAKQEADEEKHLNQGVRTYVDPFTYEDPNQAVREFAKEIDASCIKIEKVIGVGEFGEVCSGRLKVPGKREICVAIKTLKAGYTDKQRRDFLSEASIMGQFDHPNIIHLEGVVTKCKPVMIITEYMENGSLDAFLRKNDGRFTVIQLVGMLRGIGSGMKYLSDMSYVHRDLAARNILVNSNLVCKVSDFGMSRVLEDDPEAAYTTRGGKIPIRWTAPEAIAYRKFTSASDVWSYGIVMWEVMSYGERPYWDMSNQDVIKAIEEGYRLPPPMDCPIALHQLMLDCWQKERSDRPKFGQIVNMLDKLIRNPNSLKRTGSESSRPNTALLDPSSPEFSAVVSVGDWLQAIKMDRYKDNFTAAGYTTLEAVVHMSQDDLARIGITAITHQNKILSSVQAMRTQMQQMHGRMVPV
Chain of Photoreceptor-specific nuclear receptor (Q9Y5X4 whole entry): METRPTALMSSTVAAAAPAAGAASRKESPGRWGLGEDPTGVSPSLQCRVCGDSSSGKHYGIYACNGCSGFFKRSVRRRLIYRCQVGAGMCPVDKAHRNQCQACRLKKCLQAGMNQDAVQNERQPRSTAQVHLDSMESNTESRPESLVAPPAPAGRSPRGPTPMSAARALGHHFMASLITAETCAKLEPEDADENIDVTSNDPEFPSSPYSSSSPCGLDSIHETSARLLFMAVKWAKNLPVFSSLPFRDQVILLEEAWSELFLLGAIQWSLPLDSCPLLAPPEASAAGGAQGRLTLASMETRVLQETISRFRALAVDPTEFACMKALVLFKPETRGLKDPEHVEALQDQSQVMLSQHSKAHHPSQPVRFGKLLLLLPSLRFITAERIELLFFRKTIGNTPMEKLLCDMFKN
Chain of Glucose-6-phosphate 1-dehydrogenase (P11413 whole entry): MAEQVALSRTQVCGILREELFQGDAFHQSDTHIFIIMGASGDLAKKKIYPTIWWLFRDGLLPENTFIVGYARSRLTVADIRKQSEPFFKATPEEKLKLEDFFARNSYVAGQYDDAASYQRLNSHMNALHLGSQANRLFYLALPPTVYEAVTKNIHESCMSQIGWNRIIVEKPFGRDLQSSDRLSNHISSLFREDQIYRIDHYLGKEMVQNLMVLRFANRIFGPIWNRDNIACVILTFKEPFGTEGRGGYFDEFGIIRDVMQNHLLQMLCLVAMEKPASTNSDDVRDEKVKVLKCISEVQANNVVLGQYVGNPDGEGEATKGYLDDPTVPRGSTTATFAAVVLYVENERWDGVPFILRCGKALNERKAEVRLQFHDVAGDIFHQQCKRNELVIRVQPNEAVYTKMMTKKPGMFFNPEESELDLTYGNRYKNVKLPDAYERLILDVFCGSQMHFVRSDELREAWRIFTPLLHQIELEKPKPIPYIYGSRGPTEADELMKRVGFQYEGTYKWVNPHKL
Chain of FAD-linked sulfhydryl oxidase ALR (P55789 whole entry): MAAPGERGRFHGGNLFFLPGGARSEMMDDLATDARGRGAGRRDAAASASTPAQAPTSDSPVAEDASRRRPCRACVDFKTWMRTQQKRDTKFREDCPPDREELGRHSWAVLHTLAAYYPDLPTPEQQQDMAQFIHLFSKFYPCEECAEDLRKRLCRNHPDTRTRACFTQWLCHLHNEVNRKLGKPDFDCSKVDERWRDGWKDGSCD

Compound: O=C1C(Cl)=C(N2CCN(C/C=C/c3ccccc3)CC2)C(=O)N1c1ccc(Cl)c(Cl)c1
- IC50 (Bcl-2-related protein A1 [1]): 0.73 µM (active)
- IC50 (Bcl-2-related protein A1 [2]): 594 nM (active)

Compound: CC(=O)c1noc(C)c1C(=O)Nc1nccs1
- EC50 [3]: 6.46 µM (active)

Compound: COc1ccccc1N1CSC2=C(C#N)C(c3ccc(SC)cc3)CC(=O)N2C1 (stereo not drawn)
- IC50 (Large T antigen): 28.4 µM (active)
- IC50 (Ephrin type-A receptor 4): 21.5 µM (active)
- IC50 [4]: > 80 µM (inactive)

Compound: Cc1ccc(N=Nc2ccc(O)c3ncccc23)cc1
- EC50 [5]: 165 nM (active)
- EC50 (cells [6]): 9.69 µM (active)
- EC50 [7]: 686 nM (active)
- EC50 (cells [8]): > 350 µM (not active)
- EC50 [9]: 2.02 µM (active)
- EC50 [10]: 32.7 µM (active)
- EC50 (Streptococcus): 1.56 µM (active)
- AC50 (INS1): 1.3 µM (active)

Compound: COc1ccc(N2C(=O)C(Cl)=C(Nc3c(C)n(C)n(-c4ccccc4)c3=O)C2=O)cc1
- IC50 (Bcl-2-related protein A1 [11]): > 100 µM (not active)
- IC50 (Bcl-2-related protein A1 [1]): > 100 µM (not active)

Compound: CCOC(=O)c1ccc(N2C(=O)CC(N3CCC(O)(c4ccc(Br)cc4)CC3)C2=O)cc1 (stereo not drawn)
- IC50 (Galanin receptor type 2): > 42 µM (not active)

Compound: Cc1oc(-c2ccc(Cl)cc2)cc1-c1nn2c(-c3ccoc3C)nnc2s1
- IC50 (Genome polyprotein): > 49.8 µM (not active)
- IC50 (Estrogen receptor): 2.77 µM (active)
- IC50 [12]: 3.8 µM (not active)

Compound: O=C(Cc1ccccc1)Nc1ccc2oc(-c3ccncc3)nc2c1
- IC50 [13]: 6.54 µM (active)
- IC50 [14]: 6.31 µM (active)

Compound: O=C1CCC(=O)N1CNc1ccc(Oc2ccccc2)cc1
- IC50 [15]: > 100 µM (active)
- AC50 [16]: 166 nM (active)

Compound: C[C@H](O)C#Cc1ccc2c(c1)O[C@H](CN(C)Cc1ccc(-c3ccccc3)cc1)[C@H](C)CN([C@@H](C)CO)S2(=O)=O
- AC50 (Paired box protein Pax-8): 5.87 µM (active)
- AC50 [17]: 50 µM (active)
- AC50 [18]: > 52 µM (inactive)

Compound: COc1ccccc1N1CCN(CCN(C(=O)c2ccc(I)cc2)c2ccccn2)CC1
- AC50 (Cytochrome P450 2C19): 10 µM (inconclusive)

Compound: C/C(=N/NC(=O)C1CCCC1)c1ccc(NC(=O)C(F)(F)F)cc1
- EC50 [19]: > 112 µM (not active)
- EC50 [20]: 3.55 µM (active)
- EC50 [21]: < 1 µM (active)

Compound: CC(C)Oc1ccc(OCCn2c(=S)[nH]c3ccccc32)cc1
- AC50 [22]: > 52 µM (inactive)

Compound: O=C1C2CC=CCC2C(=O)N1SC(Cl)(Cl)Cl (stereo not drawn) [CAPTAN]
- IC50 [23]: > 10 µM (inactive)
- IC50 [24]: 78.8 nM (active)
- IC50 [25]: 402 nM (active)
- IC50 [26]: 1.76 µM (active)
- IC50 [27]: 903 nM (active)
- IC50 [28]: 306 nM (active)
- IC50 [29]: > 10 µM (inactive)
- IC50 [30]: 500 nM (active)
- IC50 [31]: 348 nM (active)
- IC50 [32]: 2.21 µM (active)

Compound: OC(CCN1CCCCC1)(c1ccccc1)c1ccccc1 [PRIDINOL]
- IC50 [33]: 27 µM (inactive)
